Here are results for ten molecules from patent US20240251792A1, “WEED CONTROL METHOD” (SYNGENTA CROP PROTECTION AG, priority 2021, published 2024).

Type in all cases: in vivo
Assay [1] deals with AMARE. Description: Biological efficacy, post-emergence glasshouse test (Table 2). To be noted: 1000 g/ha, after 12 days. The method, then: (§1) Seeds of a variety of test species were shown in unsterilised compost in small pots. After cultivation for one day (pre-emergence) or seven days (post-emergence) in controlled conditions in the glasshouse (at 24/16° C., day/night; 14 hours light; 65% humidity) the plants were sprayed with 1 mg of the active ingredient, formulated in 466 μl of a acetone/water/Tween 20 (49.75:49.75:0.5) solution, which is equivalent to 1000 g/ha. Once the foliage was dry, the pots were kept in the glasshouse (at 24/16° C., day/night; 14 hours light; 65% humidity), and were watered twice daily. After 12 days the test was evaluated and scored (100=total damage to plant, 0=no damage to plant).

In assay [2] the test system is DIGSA. The assay is described as above. To be noted: 1000 g/ha, after 12 days. As to the method: as §1
The subject of assay [3] is LOLPE. The description is as above. The following applies: 1000 g/ha, after 12 days. As to the method: as §1
For assay [4], the system named is STEME. Described as above. To be noted: 1000 g/ha, after 12 days. As to the method:
as §1

The test system of assay [5] is AMARE. Put plainly: Biological efficacy, pre-emergence glasshouse test (Table 2). The following applies: 1000 g/ha, after 12 days. As to the method: as §1
The test system of assay [6] is DIGSA. The description is as above. The following applies: 1000 g/ha, after 12 days. The method, then:
as §1

Assay [7] has as its system LOLPE. The assay is described as above. The following applies: 1000 g/ha, after 12 days. As to the method:
as §1

Assay [8] has as its system STEME. The assay is described as above. The following applies: 1000 g/ha, after 12 days. The method, then:
as §1

Another assay relates to ABUTH. Description: Pre-emergence biological efficacy (Table 3). To be noted: Abutilon theophrasti, 312 h, after 13 days, read-out: evaluation (100=total damage to plant; 0=no damage to plant). A digest of the protocol:
(§2)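 Sown pots, 1 d glasshouse (24/19 °C, 16 h light), pre-emergence spray of compound from 50 g/l AMA formulation diluted in 0.2% Genapol X080. Grown at 24/18 °C, 15 h light, 50% humidity, watered twice daily; scored 0–100 damage at 13 d.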

Assay [9] deals with AMARE. Put plainly: Pre-emergence biological efficacy (Table 3). To be noted: Amaranthus retroflexus, 312 h, 1000 g/ha, after 13 days, read-out: evaluation (100=total damage to plant; 0=no damage to plant). The procedure, abridged:
as §2

A further assay deals with ECHCG. Put plainly: Pre-emergence biological efficacy (Table 3). To be noted: Echinochloa crus-galli, 312 h, 1000 g/ha, after 13 days, read-out: evaluation (100=total damage to plant; 0=no damage to plant). The procedure, abridged: as §2
For a further assay, the system named is IPOHE. Description: Pre-emergence biological efficacy (Table 3). To be noted: Ipomoea hederacea, 312 h, 1000 g/ha, after 13 days, read-out: evaluation (100=total damage to plant; 0=no damage to plant). The procedure, abridged:
as §2

Assay [10] has as its system STEME. Description: Pre-emergence biological efficacy (Table 3). The following applies: 312 h, after 13 days, read-out: evaluation (100=total damage to plant; 0=no damage to plant). The procedure, abridged: as §2
The subject of the next assay is ZEAMX. Description: Pre-emergence biological efficacy (Table 3). The following applies: 312 h, 1000 g/ha, after 13 days, read-out: evaluation (100=total damage to plant; 0=no damage to plant). The procedure, abridged: as §2
In the next assay the test system is weeds and/or crops. Description: Post-emergence biological efficacy (Table 4). The following applies: 312 h, 1000 g/ha, evaluated after 13 days. A digest of the protocol:
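Weeds and crops were grown 14 days in a glasshouse, then sprayed post-emergence with compound formulated in acetone/F50 and diluted in 0.2% Genapol X080 to the final dose. Damage was scored after 13 days on a 0–100 scale, where 100 is total damage.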

Where [11] appears, read: STEME, read-out: damage to plant STEME (100=total damage; 0=no damage).
[12] abbreviates: ZEAMX, read-out: damage to plant ZEAMX (100=total damage; 0=no damage).
Where [13] appears, read: Abutilon theophrasti, ABUTH, read-out: damage to plant ABUTH (100=total damage; 0=no damage).
The mark [14] stands for this setting: Amaranthus retroflexus, AMARE, read-out: damage to plant AMARE (100=total damage; 0=no damage).
Setting [15] is: Echinochloa crus-galli, ECHCG, read-out: damage to plant ECHCG (100=total damage; 0=no damage).
The mark [16] stands for this setting: Ipomoea hederacea, IPOHE, read-out: damage to plant IPOHE (100=total damage; 0=no damage).

Read-outs that look alike come from different tables or passages of the source.

Consider `N#Cc1ccccc1C(F)(F)C(=O)[O-].[Li+]` [Compound 5-255], for which the “score (100=total damage to plant, 0=no damage to plant)” value turned out to be 70 in the assay with AMARE [1]; 0 with DIGSA [2]; 0 in the assay with LOLPE [3]; 70 with STEME [4]; 20 in the assay with AMARE [5]; 0 in the assay with DIGSA [6]. Also, the “score (100=total damage to plant, 0=no damage to plant)” value in the assay on LOLPE [7] is listed as 0.

In the case of `COc1ccc(F)cc1C(F)(F)C(=O)O` [Compound 1-304], the “score (100=total damage to plant, 0=no damage to plant)” value in the assay with AMARE [1] is reported as 70; with DIGSA [2], 20; with LOLPE [3], 20; with STEME [4], 20; in the assay with AMARE [5], 0; with DIGSA [6], 0. Also, the “score (100=total damage to plant, 0=no damage to plant)” value in the assay on LOLPE [7] and with STEME [8] was 0 throughout.

Regarding `CCOC(=O)C(F)(F)c1cccc2ccccc12` [Compound 3-397, Ethyl 2,2-difluoro-2-(1-naphthyl)acetate], the “score (100=total damage to plant, 0=no damage to plant)” value with AMARE [1] is recorded as 40; in the assay with DIGSA [2] it was 0; with LOLPE [3], 0; in the assay on STEME [4], 70; with AMARE [5] it was 0; with DIGSA [6], 0. Moreover, the “score (100=total damage to plant, 0=no damage to plant)” value in the assay on LOLPE [7] came to 0. Besides, the pest or weed control at 1000 g/ha in the assay with ABUTH was 50%; in the assay with AMARE [9], 10%; in the assay on ECHCG it was 0%; in the assay on IPOHE, 0%; in the assay with STEME [10] it was 40%; in the assay with weeds and/or crops (setting [11]), 100%. Also, the pest or weed control at 1000 g/ha in the assay on weeds and/or crops (setting [12]) turned out to be 0%; in the assay with weeds and/or crops (setting [13]), 90%; with weeds and/or crops (setting [14]) it was 10%; in the assay on weeds and/or crops (setting [15]), 0%; in the assay with weeds and/or crops (setting [16]), 60%. The plant injury at 1000 g/ha in the assay with ZEAMX amounted to 20%.

Regarding `COc1cccc(C(F)(F)C(=O)O)c1` [Compound 1-6], the “score (100=total damage to plant, 0=no damage to plant)” value is given as 80 with AMARE [1]; 0 with DIGSA [2]; 0 in the assay on LOLPE [3]; 20 with STEME [4]; 0 in the assay on DIGSA [6]; 0 with LOLPE [7]. Moreover, the “score (100=total damage to plant, 0=no damage to plant)” value in the assay with STEME [8] stood at 0.

For the molecule `Nc1cc(Cl)cc(C(F)(F)C(=O)O)c1Cl` [Compound 1-235, 2-(3-Amino-2,5-dichlorophenyl)-2,2-difluoroacetic acid], the pest or weed control at 1000 g/ha in the assay with ABUTH stood at 30%; in the assay with AMARE [9], 40%; in the assay with ECHCG, 10%; with IPOHE, 20%; in the assay on STEME [10], 30%; with weeds and/or crops (setting [11]), 50%. Moreover, the pest or weed control at 1000 g/ha in the assay on weeds and/or crops (setting [12]) is 20%; in the assay with weeds and/or crops (setting [14]), 70%; in the assay with weeds and/or crops (setting [15]), 20%; in the assay with weeds and/or crops (setting [16]) it was 30%. The plant injury at 1000 g/ha in the assay with ZEAMX stood at 0%.

On to `O=C(O)C(F)(F)c1cccc2cccc(Cl)c12` [Compound 1-416, 2-(8-chloro-1-naphthyl)-2,2-difluoro-acetic acid], for which the pest or weed control at 1000 g/ha was 80% in the assay with ABUTH; 90% in the assay with AMARE [9]; 40% in the assay on ECHCG; 90% with IPOHE; 80% in the assay with STEME [10]; 90% in the assay with weeds and/or crops (setting [11]). For the same molecule, the pest or weed control at 1000 g/ha in the assay on weeds and/or crops (setting [12]) turned out to be 20%; with weeds and/or crops (setting [14]), 80%; in the assay on weeds and/or crops (setting [15]) it was 10%; in the assay on weeds and/or crops (setting [16]) it was 80%. For the same molecule, the plant injury at 1000 g/ha in the assay with ZEAMX amounted to 10%.

As to `O=C(O)C(F)(F)c1c(F)ccc2cccnc12` [Compound 1-406, 2,2-Difluoro-2-(7-fluoro-8-quinolyl)acetic acid], the pest or weed control at 1000 g/ha with ABUTH came out at 60%; with AMARE [9], 80%; in the assay on ECHCG, 0%; in the assay with IPOHE it was 60%; in the assay on STEME [10], 50%; in the assay on weeds and/or crops (setting [11]), 70%. For the same molecule, the pest or weed control at 1000 g/ha in the assay on weeds and/or crops (setting [12]) came out at 40%; in the assay with weeds and/or crops (setting [13]), 70%; with weeds and/or crops (setting [14]), 80%; with weeds and/or crops (setting [15]), 20%; in the assay on weeds and/or crops (setting [16]) it was 80%. Further, the plant injury at 1000 g/ha in the assay with ZEAMX worked out at 10%.

As to `Cc1noc2cccc(C(F)(F)C(=O)O)c12` [Compound 1-391, 2,2-Difluoro-2-(3-methyl-1,2-benzoxazol-4-yl)acetic acid], the pest or weed control at 1000 g/ha amounted to 40% in the assay on ABUTH; 70% in the assay on AMARE [9]; 40% in the assay with ECHCG; 60% with IPOHE; 20% in the assay with STEME [10]; 50% in the assay on weeds and/or crops (setting [11]). In addition, the pest or weed control at 1000 g/ha in the assay on weeds and/or crops (setting [12]) was determined as 10%; in the assay on weeds and/or crops (setting [14]) it was 70%; with weeds and/or crops (setting [15]), 30%; with weeds and/or crops (setting [16]), 80%. In addition, in the assay with ZEAMX, the plant injury at 1000 g/ha is 10%.

With `O=C(O)C(F)(F)c1c(Cl)ccc2ccccc12` [Compound 1-401, 2-(2-chloronaphthalen-1-yl)-2,2-difluoroacetic acid], the pest or weed control at 1000 g/ha in the assay with ABUTH came to 60%; with AMARE [9] it was 80%; in the assay with ECHCG it was 30%; in the assay with IPOHE it was 50%; in the assay on STEME [10], 80%; with weeds and/or crops (setting [11]) it was 80%. Besides, the pest or weed control at 1000 g/ha is 10% with weeds and/or crops (setting [12]), 80% with weeds and/or crops (setting [13]), 70% in the assay on weeds and/or crops (setting [14]) and 80% in the assay on weeds and/or crops (setting [16]). For the same molecule, in the assay on ZEAMX, the plant injury at 1000 g/ha was 0%.

For `O=C(O)C(F)(F)c1c(Cl)ccc2cccnc12` [Compound 1-407, 2-(7-Chloroquinolin-8-yl)-2,2-difluoroacetic acid], the pest or weed control at 1000 g/ha was 70% in the assay on ABUTH; 60% in the assay with AMARE [9]; 50% with ECHCG; 60% in the assay with IPOHE; 10% in the assay with STEME [10]; 30% in the assay with weeds and/or crops (setting [11]). The pest or weed control at 1000 g/ha amounted to 0% in the assay with weeds and/or crops (setting [12]), 70% in the assay on weeds and/or crops (setting [14]), 0% in the assay with weeds and/or crops (setting [15]) and 80% in the assay on weeds and/or crops (setting [16]). For the same molecule, the plant injury at 1000 g/ha in the assay on ZEAMX is 40%.
